Entries after “also recorded” stand apart in the source; their conditions may differ.
Experiments:
Djndk, Djmpka, DjAdb-Ba = test: Gene expression in regenerating planaria blastemas (real-time PCR); type: in vivo, Dugesia japonica; settings: 100 nM, 2 days post injury
Experimental: Whole mount in situ hybridization, real-time PCR and dsRNA synthesis: Regenerating blastemas were obtained from planaria after surgical injury and placed in Trizol (Ambion). RNA was isolated following manufacturer's instructions and cDNA was synthesized essentially as in (16) using random hexamers, Oligo(dt)20 and Superscript III (Invitrogen), Relative quantitative analysis for each gene product was carried out using an ABI 7900ht fast real-time PCR machine (Applied Biosystems). DjGapdh—Forward: […] (SEQ ID NO. 1); Reverse: […] (SEQ ID NO. 2). Djsfpr-A—Forward: […] (SEQ ID NO. 3); Reverse: […] (SEQ ID NO. 4). Djndk—Forward: […] (SEQ ID NO. 5); Reverse: […] (SEQ ID NO. 6). DjmpkA—Forward: […] (SEQ ID NO. 7); Reverse: […] (SEQ ID NO. 8). DfAdb-Ba—Forward: […] (SEQ ID NO. 9); Reverse: […] (SEQ ID NO. 10). DjGst—Forward: […] (SEQ ID NO. 11); Reverse: […] (SEQ ID NO. 12). The constitutively transcribed housekeeping gene, GAPDH, was employed to normalized target gene expression levels as in (16).
Planaria regeneration: Planaria (Dugesia japonica; Dj) were kept in water (Poland Spring) at 18° C. […] Tissue regeneration was assessed as in (12). […] The extent of tissue regeneration during a 6-day period for D. japonica was determined using captured images of the regenerating blastemas at regular intervals (24 h). These images were analyzed using ImageJ software. […]

Human neutrophils [1] = test: Human neutrophil intracellular reactive oxygen species (H2DCFDA); type: cell-based; settings: 10 pM-100 nM, 15 min, then E. coli 45 min
Experimental: (§1) Leukocyte phagocytosis: Macrophages were prepared from peripheral blood mononuclear cells (PBMC) purchased from Children's Hospital Blood Bank, Boston, and phagocytosis was assessed as in (11). Briefly, macrophages (5×10^4 cells,/well) were incubated with SCI (10 pM-100 nM), SCII (10 pM-100 nM), MaR1 (10 pM-100 nM), or vehicle (0.1% EtOH in DPBS) for 15 min at 37° C., then fluorescent labeled apoptotic cells were added and cells incubated 45 min at 37° C. Extracellular fluorescence was quenched using Trypan blue (1:15 dilution) and phagocytosis assessed using an M3 SpectraMax plate reader. In select experiments, macrophages (5×10^4 cells/well) or neutrophils (1×10^5 cells/well) were obtained from human healthy volunteers' peripheral blood as in (11) in accordance with Partners Human Research Committee Protocol (#1999P001297), and incubated with H2DCFDA (5 μM, 30 min, 37° C.), then with SCI (10 pM-100 nM), SCI (10 pM-100 nM) or vehicle (0.1% EtOH in DPBS, 15 min, 37° C.) and E. coli (1:50 leukocytes to E. coli, 45 min, 37° C.) Intracellular reactive oxygen species were determined by measuring fluorescence using an M3 SpectraMax plate reader. […]

[2] = tested on: Planaria (Dugesia japonica); test: Planaria tissue regeneration after surgical injury (head resection), tissue regeneration index; type: in vivo; settings: for T50: either SCI or SCII alone, concentration dependent, vehicle ~5 days; for tissue regeneration / head regrowth (in words): surgically injured planaria vs vehicle
Experimental: Planaria regeneration: Planaria (Dugesia japonica; Dj) were kept in water (Poland Spring) at 18° C. All animals were starved for at least 7 days prior to experiments. Tissue regeneration was assessed as in (12). Briefly, planaria were subject to head resection post-occularly (surgical Injury). The posterior portions of the planaria were then placed in spring water containing 0.01% EtOH, SPE-C isolate fraction 2 from resolving exudates or milk at the indicated dilutions, U0126 (Extracellular signal-regulated kinases (ERK) inhibitor; Cell Signaling Technology; 25 μM (16)), U0126 plus resolving exudates SPE-C isolates fraction 2, SCI (100 nM), SCII (100 nM), lipoxygenase inhibitor (baicalein, 10 μM) or lipoxygenase inhibitor plus SCI and SCII (100 nM). The extent of tissue regeneration during a 6-day period for D. japonica was determined using captured images of the regenerating blastemas at regular intervals (24 h). These images were analyzed using ImageJ software. A tissue regeneration index (TRI) was employed that took into consideration the size of the regenerated tissue total area (A) and the post-ocular width W of the animal, where TRI=A/W. In determined experiments, planaria were injured and incubated in water, containing 10^8CFU E. coli (serotype O6:K2:H1) or with E. coli plus SCI and SCII (100 nM), and tissue regeneration indices assessed as described above.
Planaria regeneration: Planaria (Dugesia japonica) were kept in water (Poland. Spring; Nestlé Waters North America, Stamford, Conn., USA) at 18° C. All animals were starved for at least 7 d before the experiments. Tissue regeneration was assessed as described previously (10). In brief, planaria were subjected to head resection postoccularly (surgical injury). The posterior portions of the planaria were then placed in spring water containing 0.01% EtOH, 16-glutathionyl, 17-hydroxyl-4Z,7Z,10,12,14,19Z-docosahexaenoic acid plus 16-cysteinylglycinyl, 7-hydroxyl-4Z,7Z,10,12,14,19Z-docosahexaenoic acid (50 nM; each) or 8-gutathionyl, 7,17-dihydroxyl-4Z9,11,13Z,15E,19Z-docosahexaenoic acid plus 8-cysteinylglycinyl, 7,17-dihydroxyl-4Z,9,11,13Z,15E,19Z-docosahexaenoic acid (50 nM, each). The extent of tissue regeneration during a 6-d period was determined using captured images of the regenerating blastemas at regular intervals (24 h). These images were analyzed using ImageJ software (NIH, Bethesda, Md., USA). A tissue regeneration index (TRI) was used that took into consideration the size of the regenerated tissue total area (A) and the postocular width (W), where TRI=A/W (10).

Human macrophages [3] = test: Human macrophage phagocytosis of fluorescently labeled E. coli; type: cell-based; settings: 10 pM-100 nM, 15 min, then E. coli 45 min
Experimental: Leukocyte phagocytosis: Macrophages were prepared from peripheral blood mononuclear cells (PBMC) purchased from Children's Hospital Blood Bank, Boston, and phagocytosis was assessed as in (11). Briefly, macrophages (5×10^4 cells,/well) were incubated with SCI (10 pM-100 nM), SCII (10 pM-100 nM), MaR1 (10 pM-100 nM), or vehicle (0.1% EtOH in DPBS) for 15 min at 37° C., then fluorescent labeled apoptotic cells were added and cells incubated 45 min at 37° C. Extracellular fluorescence was quenched using Trypan blue (1:15 dilution) and phagocytosis assessed using an M3 SpectraMax plate reader. In select experiments, macrophages (5×10^4 cells/well) or neutrophils (1×10^5 cells/well) were obtained from human healthy volunteers' peripheral blood as in (11) in accordance with Partners Human Research Committee Protocol (#1999P001297), and incubated with H2DCFDA (5 μM, 30 min, 37° C.), then with SCI (10 pM-100 nM), SCI (10 pM-100 nM) or vehicle (0.1% EtOH in DPBS, 15 min, 37° C.) and E. coli (1:50 leukocytes to E. coli, 45 min, 37° C.) Intracellular reactive oxygen species were determined by measuring fluorescence using an M3 SpectraMax plate reader. To assess bacterial phagocytosis, macrophages (5×10^4 cells/well) or neutrophils (1×10^5 cells/well) were incubated with SCI (10 pM-100 nM), SCII (10 pM-100 nM) or vehicle (0.1% EtOH in DPBS, 15 min, 37° C.), then incubated with BacLight Green (Molecular Probes) labeled E. coli (1:50 leukocytes to E. coli, 45 min, 37° C.), Extracellular fluorescence was quenched using Trypan blue (1:15 dilution), and phagocytosis assessed using an M3 SpectraMax plate reader.
Macrophage phagocytosis was assessed using fluorescently labeled E. coli (serotype O6:K2;H1) with BacLight Green Bacterial Stain (Life Technologies, Eugene, Oreg., USA). E. coli [2.5×10^6 colony-forming units (CFL)/well] were then added to macrophages previously plated in 96-well plates (40 min at 37° C.) and incubated with 0.1-10 nM concentration of test compounds [15 min at 37° C. (pH 7.45)]. Fluorescence was measured on a SpectraMax M3 plate reader, and results were analyzed using SoftMax Pro.

Human macrophages [4] = test: Human macrophage intracellular reactive oxygen species (H2DCFDA); type: cell-based; settings: 10 pM-100 nM, 15 min, then E. coli 45 min
Experimental: as §1

Human neutrophils [5] = test: Human neutrophil phagocytosis of fluorescently labeled E. coli; type: cell-based; settings: 10 pM-100 nM, 15 min, then E. coli 45 min
Experimental: as §1

Row | Compound | genes involved in head regeneration (Djndk, Djmpka, DjAdb-Ba) | neutrophil intracellular reactive oxygen species (Human neutrophils [1]) | T50 [2] | tissue regeneration / head regrowth (in words) [2] | macrophage phagocytosis of E. coli (Human macrophages [3]) | macrophage intracellular reactive oxygen species (Human macrophages [4]) | neutrophil phagocytosis of E. coli (Human neutrophils [5])
1 | CCC=CCC=CCC(O)C(C=CC=CC=CCC=CCCC(=O)O)SCC(N)C(=O)NCC(=O)O (centres unmarked) [SCII, 13-cysteinylglycinyl, 14-hydroxy-docosahexaenoic acid] | upregulated | enhanced | ~3.5 days | accelerated head regrowth; also recorded: Promotes tissue | enhanced; also recorded: Stimulates human | enhanced | enhanced; also recorded: Stimulates human
2 | 13-glutathionyl, 14-hydroxy-docosahexaenoic acid [SCI] | upregulated | enhanced; also recorded: Stimulates human | ~3.5 days | accelerated head regrowth; also recorded: Promotes tissue | enhanced; also recorded: Stimulates human | enhanced; also recorded: Stimulates human | enhanced; also recorded: Stimulates human
